The test system of one assay is AECO001 (ATCC25922). Put plainly: MIC broth microdilution, AECO001. To be noted: Escherichia coli. In kind it is cell-based, E. coli. Summed up:
(§1)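 MICs come from broth microdilution in cation-adjusted Mueller-Hinton broth, final inoculum 3×10^5–7×10^5 CFU/mL, 18-24 hours at 35° C. Levofloxacin and QC strains served as assay controls.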
(Broth dilution looks for growth in wells or tubes with falling amounts of substance.)

Assay [1] has as its system AECO063 (ATCC25922 bearing an acrAB mutation). The experiment in a line: microbe, parasite or virus in culture. It counts as cell-based, E. coli. To be noted: Escherichia coli, ATCC25922, read-out: MIC AECO063. Summed up:
as §1

The next assay relates to APAE001 (ATCC27853). The experiment in a line: MIC broth microdilution, APAE001. It counts as cell-based, P. aeruginosa. To be noted: Pseudomonas aeruginosa, ATCC27853, read-out: MIC APAE001, APAE001 (ATCC27853). Summed up:
as §1

Assay [2] deals with APAE006 (strain of P. aeruginosa in which all efflux pumps are inactivated). The experiment in a line: microbe, parasite or virus in culture. It counts as cell-based. The note with it: Pseudomonas aeruginosa, read-out: MIC APAE006, APAE006, all efflux pumps inactivated. Summed up: (§2)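 Incubation: 35° C., ambient air, 18-24 h. Medium: cation-adjusted Mueller-Hinton broth with 2-fold serial dilutions of drug. Inoculum: 3×10^5–7×10^5 CFU/mL final, per CLSI microdilution method.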

The test system of assay [3] is APAE006 in the presence of 8 micrograms per milliliter of polymyxin B nonapeptide. It counts as cell-based, P. aeruginosa. To be noted: APAE006 with 8 micrograms per milliliter polymyxin B nonapeptide. Summed up:
as §2

The test system of assay [4] is AABA1060 (clinical isolate of Acinetobacter baumannii). Put plainly: MIC broth microdilution, AABA1060. To be noted: Acinetobacter baumannii, read-out: MIC AABA1060. In kind it is cell-based. The method in brief: as §1
Assay [5] concerns ASAU001 (laboratory strain of S. aureus, ATCC29213). Put plainly: MIC broth microdilution, ASAU001. It counts as cell-based. To be noted: Staphylococcus aureus, ATCC29213, read-out: MIC ASAU001. The method in brief: as §1
Where [6] appears, read: ATCC25922, read-out: MIC AECO001.
Where [7] appears, read: ATCC25922, read-out: MIC AECO001 HSA AGP.

In brackets after ≈: the same amount, converted by molar mass. Read-outs that look alike come from different tables or passages of the source.

Turning to `CC(C)(N)[C@H](NC(=O)c1ccc(C#CC#Cc2cccc(F)c2)cc1)C(=O)NO` [Example 82-27], the MIC in the assay on AECO001 (ATCC25922) (setting [6]) was less than 2 mg/L; in the assay on AECO001 (ATCC25922) (setting [7]), 2 to 16 mg/L (≈ 5.08 to 40.7 µM); in assay [1] it was less than 2 mg/L; in the assay on APAE001 (ATCC27853) it was 2 to 16 mg/L (≈ 5.08 to 40.7 µM); in assay [2], less than 2 mg/L; in assay [4], 2 to 16 mg/L (≈ 5.08 to 40.7 µM). In assay [5], the MIC is 16 to 64 mg/L (≈ 40.7 to 163 µM). For the same molecule, the “MIC APAE006 + PMBN” value in assay [3] is “A (MIC's of 2.0 μg/mL or less = A)”.

Take `C[C@@H](N)[C@H](NC(=O)c1ccc(/C=C/C#CC2CCCCC2)cc1)C(=O)NO` [Example 114-17]: the MIC in the assay on AECO001 (ATCC25922) (setting [6]) is less than 2 mg/L; with AECO001 (ATCC25922) (setting [7]), 2 to 16 mg/L (≈ 5.41 to 43.3 µM); in assay [1], less than 2 mg/L; with APAE001 (ATCC27853), 2 to 16 mg/L (≈ 5.41 to 43.3 µM); in assay [2], less than 2 mg/L; in assay [4], 2 to 16 mg/L (≈ 5.41 to 43.3 µM). Besides, the MIC in assay [5] was 2 to 16 mg/L (≈ 5.41 to 43.3 µM). Also, the “MIC APAE006 + PMBN” value in assay [3] is “A (MIC's of 2.0 μg/mL or less = A)”.

Consider `C[C@@H](N)[C@H](NC(=O)c1ccc(C#CC#Cc2ccc(CNCCF)cc2)cc1)C(=O)NO` [Example 86-5], for which the MIC was less than 2 mg/L with AECO001 (ATCC25922) (setting [6]); 16 to 64 mg/L (≈ 36.7 to 147 µM) in the assay with AECO001 (ATCC25922) (setting [7]); less than 2 mg/L in assay [1]; less than 2 mg/L with APAE001 (ATCC27853); less than 2 mg/L in assay [2]; 2 to 16 mg/L (≈ 4.58 to 36.7 µM) in assay [4]. Moreover, in assay [5], the MIC lay in the range of 16 to 64 mg/L (≈ 36.7 to 147 µM). For the same molecule, the “MIC APAE006 + PMBN” value in assay [3] is on record as “A (MIC's of 2.0 μg/mL or less = A)”.

On to `CC(C)(N)C(NC(=O)c1ccc(C#CC#CC2CC2)cc1)C(=O)NO` (centres unmarked) [Example 91-10], for which the MIC (in the assay with AECO001 (ATCC25922) (setting [6]); in the assay with AECO001 (ATCC25922) (setting [7]); in assay [1]; with APAE001 (ATCC27853); in assay [2]; in assay [4]) was less than 2 mg/L throughout. In assay [5], the MIC was in the range of 16 to 64 mg/L (≈ 47.1 to 189 µM). For the same molecule, the “MIC APAE006 + PMBN” value in assay [3] is “A (MIC's of 2.0 μg/mL or less = A)”.

As for `Cn1cnc(C#CC#Cc2ccc(C(=O)N[C@H](C(=O)NO)C(C)(C)N)cc2)c1` [Example 89-5], the MIC is 2 to 16 mg/L (≈ 5.27 to 42.2 µM) with AECO001 (ATCC25922) (setting [6]); 2 to 16 mg/L (≈ 5.27 to 42.2 µM) with AECO001 (ATCC25922) (setting [7]); less than 2 mg/L in assay [1]; less than 2 mg/L with APAE001 (ATCC27853); less than 2 mg/L in assay [2]; 2 to 16 mg/L (≈ 5.27 to 42.2 µM) in assay [4]. Moreover, the MIC in assay [5] lay within 16 to 64 mg/L (≈ 42.2 to 169 µM). For the same molecule, the “MIC APAE006 + PMBN” value in assay [3] was “A (MIC's of 2.0 μg/mL or less = A)”.

`C[C@@H](N)[C@H](NC(=O)c1ccc(/C=C/C#CC2CC2)cc1)C(=O)NO` [Example 114-15]: the MIC is 2 to 16 mg/L (≈ 6.11 to 48.9 µM) with AECO001 (ATCC25922) (setting [6]); 16 to 64 mg/L (≈ 48.9 to 195 µM) in the assay with AECO001 (ATCC25922) (setting [7]); less than 2 mg/L in assay [1]; less than 2 mg/L in the assay with APAE001 (ATCC27853); less than 2 mg/L in assay [2]; 2 to 16 mg/L (≈ 6.11 to 48.9 µM) in assay [4]. Besides, the MIC in assay [5] lay in the range of 16 to 64 mg/L (≈ 48.9 to 195 µM). In addition, the “MIC APAE006 + PMBN” value in assay [3] was “A (MIC's of 2.0 μg/mL or less = A)”.

As to `C[C@@H](N)[C@H](NC(=O)c1ccc(C#Cc2ccc(COC3CC3)cc2)cc1)C(=O)NO` [Example 123-1, N-((1S,2R)-2-Amino-1-hydroxycarbamoyl-propyl)-4-(4-cyclopropoxymethyl-phenylethynyl)-benzamide], the MIC is less than 2 mg/L in the assay on AECO001 (ATCC25922) (setting [6]); 2 to 16 mg/L (≈ 4.91 to 39.3 µM) in the assay on AECO001 (ATCC25922) (setting [7]); less than 2 mg/L in assay [1]; 2 to 16 mg/L (≈ 4.91 to 39.3 µM) with APAE001 (ATCC27853); less than 2 mg/L in assay [2]; 2 to 16 mg/L (≈ 4.91 to 39.3 µM) in assay [4]. Also, the MIC in assay [5] lay within 16 to 64 mg/L (≈ 39.3 to 157 µM). For the same molecule, the “MIC APAE006 + PMBN” value in assay [3] is “A (MIC's of 2.0 μg/mL or less = A)”.

With `CC(C)(O)[C@H](NC(=O)c1ccc(C#CC#Cc2ccc(N)cc2)cc1)C(=O)NO` [Example 82-17], the MIC (in the assay on AECO001 (ATCC25922) (setting [6]); in the assay with AECO001 (ATCC25922) (setting [7]); in assay [1]; in the assay with APAE001 (ATCC27853); in assay [2]; in assay [4]) was less than 2 mg/L throughout. In assay [5], the MIC lay in the range of 2 to 16 mg/L (≈ 5.11 to 40.9 µM). In addition, the “MIC APAE006 + PMBN” value in assay [3] is “A (MIC's of 2.0 μg/mL or less = A)”.

Regarding `CC(C)(O)[C@H](NC(=O)c1ccc(C#CC#Cc2ccccn2)cc1)C(=O)NO` [Example 88-7], the MIC is less than 2 mg/L with AECO001 (ATCC25922) (setting [6]); 2 to 16 mg/L (≈ 5.3 to 42.4 µM) in the assay with AECO001 (ATCC25922) (setting [7]); less than 2 mg/L in assay [1]; 2 to 16 mg/L (≈ 5.3 to 42.4 µM) with APAE001 (ATCC27853); less than 2 mg/L in assay [2]; 2 to 16 mg/L (≈ 5.3 to 42.4 µM) in assay [4]. For the same molecule, the MIC in assay [5] lay in the range of 16 to 64 mg/L (≈ 42.4 to 170 µM). Moreover, the “MIC APAE006 + PMBN” value in assay [3] is recorded as “A (MIC's of 2.0 μg/mL or less = A)”.

Turning to `CC(C)CCC#CC#Cc1ccc(C(=O)N[C@H](C(=O)NO)[C@@H](C)N)cc1` [Example 91-28], the MIC is less than 2 mg/L with AECO001 (ATCC25922) (setting [6]); 2 to 16 mg/L (≈ 5.63 to 45 µM) in the assay with AECO001 (ATCC25922) (setting [7]); less than 2 mg/L in assay [1]; 2 to 16 mg/L (≈ 5.63 to 45 µM) in the assay with APAE001 (ATCC27853); less than 2 mg/L in assay [2]; 2 to 16 mg/L (≈ 5.63 to 45 µM) in assay [4]. Further, the MIC in assay [5] lay within 2 to 16 mg/L (≈ 5.63 to 45 µM). For the same molecule, in assay [3], the “MIC APAE006 + PMBN” value is “A (MIC's of 2.0 μg/mL or less = A)”.

For the origin of these results see patent US9617256B2 (priority 2007, dated 2017).
